Reference: patent publication US11267806B2, “Indazole compound for use in inhibiting kinase activity, composition and application thereof” (Shenzhen TargetRx, Inc., priority 2017, dated 2022)

Tests used:
[1] = Pharmacokinetic assay in rats; type: in vivo, SD rat; conditions: male SD rats, i.g., 3 mg/kg; for AUC(0-t) / Cmax / MRT / Tmax: rat, plasma, po
Protocol: (4) Pharmacokinetic Assay in Rats Assay objective: after administration of test compounds to rats, the pharmacokinetic behavior of the compounds disclosed herein was investigated. Assay Animals: Species and strains: SD rat grade: SPF grade Gender and quantity: male, 6 Weight range: 180 to 220 g (the actual weight range was from 187 to 197 g) Assay Procedure: Before blood samples were collected, 20 μL of 2 M sodium fluoride solution (esterase inhibitor) was previously added to an EDTA-K2 anticoagulant tube, dried in an 80° C. oven, and placed in a 4° C. refrigerator. Rats (male, weighing 187 to 197 g) were randomly divided into 2 groups, and were fasted overnight in the afternoon before the experiment but were allowed to drink water freely. Food was given 4 hours after the administration. […] About 100-200 μL of blood was taken from the orbital vein of rats at 15 min, 30 min, 1, 2, 3, 5, 8 and 10 h after administration, placed in a 0.5 mL Eppendorf tube with EDTA-K2 anticoagulant and mixed immediately. After anticoagulation, the tube was gently inverted 5-6 times as quickly as possible. After the blood was taken, it was placed in an ice box, and then within 30 min, the blood sample was centrifuged for 10 min at 4000 rpm and 4° C. to separate the plasma. Immediately after collection of all plasma, it was stored at −20° C. The concentration of the drug in plasma at each time point was determined after sample collection at all time points. Based on the data of the average concentration of the drug in plasma versus time after administration obtained as described above, pharmacokinetics-related parameters of male SD rats after the i.g. administration of test compounds (3 mg/kg) were calculated using the Winnonin software according to non-compartment statistical moment theory.

[2] = Liver microsomal metabolism assay, human; type: in vitro ADME; conditions: pH 7.4, human liver microsomes 0.5 mg/mL, compound 1 μM, 37° C.; for microsomal CLint at 1 μM: read-out: Human liver microsome assay CLint; for half-life at 1 μM: read-out: Human liver microsome assay t1/2
Protocol: (§1) (3) Liver Microsomal Metabolism Assay
(§2) […]; Coenzyme (NADPH/NADH): 1 mM, Sigma Life Science; Magnesium chloride: 5 mM, 100 mM phosphate buffer (pH 7.4).
(§3) Preparation of stock solutions: Powder of the compounds were accurately weighed and dissolved in DMSO to 5 mM.
(§4) Preparation of phosphate buffer (100 mM, pH7.4): A pre-prepared 0.5M potassium dihydrogen phosphate (150 mL) was mixed with 0.5M dibasic potassium phosphate (700 mL). The pH of the mixture was adjusted to 7.4 with 0.5M dibasic potassium phosphate solution. The mixture was diluted 5-fold with ultrapure water before use, and magnesium chloride was added to obtain a phosphate buffer (100 mM) containing 100 mM potassium phosphate, 3.3 mM magnesium chloride, pH 7.4.
(§5) A NADPH regeneration system solution (containing 6.5 mM NADP, 16.5 mM G-6-P, 3 U/mL G-6-P D, 3.3 mM magnesium chloride) was prepared and placed on wet ice prior to use.
(§6) Incubation of the samples: The stock solutions of the respective compounds were respectively diluted to 0.25 mM with an aqueous solution containing 70% acetonitrile, and used as a working solution, ready for use. 398 μL of the dilution of human liver microsomes or rat liver microsomes were added to 96-well incubation plates (N=2), respectively, and 2 μL of 0.25 mM working solution was added and mixed.
(§7) Metabolic stability assay: 300 μL of pre-chilled stop solution was added to each well of 96-well deep well plates and placed on ice as stop plates. The 96-well incubation plates and NADPH regeneration system were placed in a 37° C. water bath box, shaken at 100 rpm and pre-incubated for 5 min. 80 μL of incubation solution was taken out from each well of the incubation plates and added to the stop plates, mixed, and replenished with 20 μL of NADPH regeneration system solution as a 0-min sample. 80 μL of NADPH regeneration system solution was added to each well of the incubation plates to start the reaction and start counting. […] Separately, 100 μL of the reaction solutions was taken at 10, 30, and 90 min reaction, respectively, added to stop plates, and vortexed for 3 minutes to terminate the reaction. The stop plates were centrifuged at 5000×g at 4° C. for 10 min. 100 μL of the supernatant was added to a 96-well plate to which 100 μL of distilled water was previously added, mixed, and analyzed by LC-MS/MS.
(§8) Data analysis: The peak areas of the corresponding compounds and internal standard were detected by LC-MS/MS system, and the ratio of the peak area of the compounds to the internal standard was calculated.
(§9) The metabolic stability of the compounds in human and rat liver microsomes was evaluated by simultaneously testing and comparing the compounds disclosed herein and the non-deuterated compound. […]

[3] = tested on: HCC-78 (SLC34A2-ROS1) cells; test: cells; conditions: Homo sapiens, HCC78, 72 h, read-out: HCC-78 IC50
Protocol: (§10) Assay methods: 1. Preparation of cell plates: Ba/F3, and Ba/F3 Bcr-Abl T315I cells were separately seeded in 96-well plates, and 8 ng/ml IL-3 was added to Ba/F3 cells. The cell plates were placed in a carbon dioxide incubator for culture overnight. 2. […] 3. Treatment of cells with compounds: The compounds were transferred to cell plates at a starting concentration of 10 μM. The cell plates were incubated in a carbon dioxide incubator for 3 days. 4. Detection: CellTiter-Glo reagent was added to the cell plates and incubated for 30 minutes at room temperature to stabilize the luminescence signal. Readings were performed using a PerkinElmer Envision multi-label analyzer.

KM12 (TPM3-TRKA) cells = test: cells; conditions: Homo sapiens, KM12, 72 h, read-out: KM12 IC50
Protocol: as §10

Ba/F3 EML-ALK cells = test: Cytotoxicity assay (cell viability, CellTiter-Glo), Ba/F3 EML-ALK; type: cell-based; conditions: Mus musculus, BaF3, 72 h, read-out: Ba/F3 EML-ALK IC50
[4] = Liver microsomal metabolism assay, rat; type: in vitro ADME; conditions: SD, pH 7.4, rat liver microsomes 0.5 mg/mL, compound 1 μM, 37° C.; for microsomal CLint at 1 μM: read-out: Rat liver microsome assay CLint; for half-life at 1 μM: read-out: Rat liver microsome assay t1/2
Protocol: as §1, §2, §3, §4, §5, §6, §7, §8, §9

[5] = tested on: Ba/F3 EML-ALK^L1196M cells; test: Cytotoxicity assay (cell viability, CellTiter-Glo), Ba/F3 EML-ALK L1196M; type: cell-based; conditions: Mus musculus, BaF3, 72 h, read-out: Ba/F3 EML-ALK^L1196M IC50

[2H]C([2H])([2H])N1CCN(c2ccc(C(=O)Nc3n[nH]c4ccc(Cc5cc(F)cc(F)c5)cc34)c(NC3CCOCC3)c2)CC1 [Compound T-1, N-(5-(3,5-difluorobenzyl)-1H-indazol-3-yl)-4-(4-(methyl-d3)piperazin-1-yl)-2-((tetrahydro-2H-pyran-4-yl)amino)benzamide]
Cl_pred [1]: 9.29 L/h/kg
F [1]: 7.43%
AUC(0-t) [1]: 1.07 µg·h/mL
Cmax [1]: 0.145 µg/mL
MRT [1]: 5.31 h
Tmax [1]: 3.33 h
microsomal CLint at 1 μM [2]: 34.7 µL/min/mg
half-life at 1 μM [2]: 0.665 h
IC50 [3]: 0.01 to 0.05 µM
IC50 (KM12 (TPM3-TRKA) cells): 0.001 to 0.01 µM
IC50 (Ba/F3 EML-ALK cells): 0.05 to 0.15 µM
microsomal CLint at 1 μM [4]: 21.3 µL/min/mg
half-life at 1 μM [4]: 1.09 h

CN1CCN(c2ccc(C(=O)Nc3n[nH]c4ccc(Cc5cc(F)cc(F)c5)cc34)c(NC3CCOCC3)c2)CC1 [Entrectinib, N-(5-(3,5-difluorobenzyl)-1H-indazol-3-yl)-4-(4-methylpiperazin-1-yl)-2-((tetrahydro-2H-pyran-4-yl)amino)benzamide, reference compound]
Cl_pred [1]: 6.83 L/h/kg
F [1]: 9.23%
AUC(0-t) [1]: 1.46 µg·h/mL
Cmax [1]: 0.236 µg/mL
MRT [1]: 4.24 h
Tmax [1]: 2.17 h
microsomal CLint at 1 μM [2]: 48.1 µL/min/mg
half-life at 1 μM [2]: 0.48 h
IC50 [5]: > 0.2 µM
IC50 [3]: 0.01 to 0.05 µM
IC50 (KM12 (TPM3-TRKA) cells): 0.001 to 0.01 µM
IC50 (Ba/F3 EML-ALK cells): 0.05 to 0.15 µM
microsomal CLint at 1 μM [4]: 32.9 µL/min/mg
half-life at 1 μM [4]: 0.703 h
